Assays:
Assay type in all cases: cell-based, Human
Beclin 1 / Bcl-2 = assay: Beclin 1 immunoprecipitation probed with anti-Bcl-2; settings: mitochondrial preparations of Cpd 1 treated cells
Text: (§1) FIG. 8. Molecular evidence of autophagic cell death in R-182 ovarian cancer cells induced by Cpd 1. […] B, Beclin 1 binds to Bcl-2. Immunoprecipitation study using mitochondrial preparations of cells pre-treated with Cpd 1 as stated in A, and subjected to beclin 1 immunoprecitation. Immunoprecipitated fractions were washed in PBS, subjected to SDS-PAGE, blotted and then probed with a mouse anti-Bcl-2 antibody. Actin and Topo-1 were used as loading control. C, Depolarized cells resulting from over-expression of Bax and Beclin 1 following administration of Cpd 1. Cells were treated with Cpd 1 as described in A, pelleted and washed in HBSS and the cell pellet resuspended in the reaction buffer for JC-1 (Biovision, Inc. MitoCapture™ K250-100). HBSS-washed cells were analysed by flow cytometry (λexcit=488 nm and (λemit=530 nm for green fluorescence (depolarized) or 590 nm for red fluorescence (polarized). 10,000 gated events were measured with a BD FACScalibur. Results were expressed as mean±standard deviation (n=3).
(§2) To measure membrane depolarization cells were treated with Cpd 1 as described above, pelleted and washed in HBSS and the cell pellet resuspended in the reaction buffer for JC-1 (Biovision, Inc. MitoCapture™ K250-100). HBSS-washed cell pellets were resuspended in 1 mL aliquots of the Mitocapture reagent buffer with 1 μL of JC-1 solution in DMSO (Biovision).

cytochrome c = assay: Western blot of R-182 cytoplasmic extracts, cytochrome c; settings: R-182 cells, 5 μg/ml over 8 hr
Description: FIG. 9. Cpd 1-induced cell death involves cytochrome c translocation to the cytoplasm. R-182 cells treated with Cpd 1 (5 μg/ml) over 8 hr and the cytoplasmic and mitochondrial fractions were separated. […] Cox-4 was included to show the integrity of the mitochondrial preparation.
After treatment with Cpd 1, protein was extracted from cells and measured as previously described (Kamsteeg et al., 2003). For separation of the cytoplasmic and mitochondrial fractions, cell pellets were processed using the ApoAlert Cell Fractionation kit (Promega) according to the manufacturer's instructions. 20 μg protein was denatured in sample buffer (2.5% sodium dodecyl sulfate [SDS], 10% glycerol, 5% β-mercapto-ethanol, 0.15 M Tris, pH 6.8, and 0.01% bromophenol blue) and subjected to 12% SDS polyacrylamide gel electrophoresis (SDS-PAGE) as previously described (Kamsteeg et al., 2003). The following antibodies and concentrations were used: mouse anti-Bax (BD Biosciences, 1:500), rabbit anti-actin (Sigma, 1:10,000), rabbit anti-cytochrome c (BD Biosciences, 1:1,000), mouse anti-Cox-4 (BD Biosciences, 1:500), rabbit anti-beclin 1 (Santa Cruz Biotechnology, 1:600), mouse anti LC3 (Nanotools, 1:500). […] Proteins were observed using enhanced chemiluminescence (Pierce, Rockford, Ill.).
Cpd 1-induced cell death also involves cytochrome c translocation to the cytoplasm (FIG. 9). […]

R-182 cells = assay: Mitochondrial membrane depolarization, JC-1 flow cytometry; settings: cells treated 5 μg/ml
Text: as §1, §2

Beclin 1 = assay: Western blot of R-182 mitochondrial extracts, Beclin 1; settings: R-182 cells, 5 μg/ml over 24 hr
Text: as §1
(§3) After treatment with Cpd 1, protein was extracted from cells and measured as previously described (Kamsteeg et al., 2003). For separation of the cytoplasmic and mitochondrial fractions, cell pellets were processed using the ApoAlert Cell Fractionation kit (Promega) according to the manufacturer's instructions. […]

LC3-II = assay: Western blot of R-182 cytoplasmic preparations, LC3-II; settings: R-182 cells, 5 μg/ml over 24 hr
Text: as §1, §3

[1] = tested on: CP70 (cell line), R179, R182, R585 (primary ovarian cancer explants); assay: Cell viability, CellTiter 96 Aqueous One Solution Cell Proliferation Assay, ovarian cancer cells; settings: concentrations up to 10 μg/ml, 24 hr exposure
Description: FIG. 1. Comparative cytotoxicity of dehydroequol and Compound I as described herein (Cpd 1) against normal and ovarian cancer cells: CP70 (cell line), R179, R182, R585 (primary ovarian cancer explants) and OSE (normal ovarian surface epithelial cells). […] Both compounds were tested at concentrations up to 10 μg/ml and exposed to cells for 24 hr.
Human EOC cell lines A2780, CP70, and OSE were propagated in RPMI plus 10% fetal bovine serum (FBS) (Gemini Bio-Products, Woodland, Calif.) at 37° C. in a 5% CO2 atmosphere. Primary EOC cells (R179, R182, R585) were isolated from malignant ovarian ascites and cultured as previously described (Kamsteeg et al., 2003). Dehydroequol and Compound 1 (Cpd 1) were obtained from Novogen (Australia). All other reagents were purchased from Sigma Chemical (St. Louis, Mo.). The pan caspase inhibitor Z-VAD-FMK was obtained from R&D Systems (Minneapolis, Minn.).
Cell viability was evaluated using the CellTiter 96 Aqueous One Solution Cell Proliferation Assay (Promega, Madison, Wis.) according to the manufacturer's instructions. The values from the treated cells were compared with the values generated from the untreated cells and reported as percent viability. Each experiment was performed in triplicate.

[2] = tested on: CP70 ovarian cancer cells; assay: DNA fragmentation, PI/Hoechst FACS analysis; settings: 10 μM for 24 hr; 1.4% in the absence of Cpd 1
Description: FIG. 7. Cpd 1 induces DNA degradation in CP70 cells. A, No treatment control. B, Cpd 1-treated cells. CP70 ovarian cancer cells were incubated with 10 μg/ml Cpd 1 for […] and fixed. Cells were co-stained with propidium iodide and Hoechst A and incidence of PI labelled cells indicative of DNA degradation in quandrant 2 was assessed by FACS analysis.
The inventors then determined whether treatment with Cpd 1 induced DNA fragmentation. Ovarian cancer cells were treated with Cpd 1 (10 μM) for 24 hr and gently trypsinised. Trypsinized cells were combined with non-adherent cells, rinsed once in medium containing serum and then resuspended at a concentration of 10^7 cells/ml in PBS. Cells were then fixed by adding 0.5 ml of cell suspension to 4.5 ml 70% ice-cold ethanol. After 2 h on ice, cells were pelleted and the ethanol was thoroughly decanted. The cell pellet was rinsed in 5 ml PBS, centrifuged, resuspended in 1 ml of PBS containing 0.1% Triton X-100, 0.2 mg/ml DNase-free RNase A, and 20 μg/ml propidium iodide (PI) and 2 μg/ml hoechst-A and incubated at 37° C. for 15 min before FACS analysis. Cells were analyzed using Becton Dickinson Cell Quest FACStation software (version 3.0.1) operating a Becton Dickinson FACSCalibur FACS machine. Gating was used to remove debris and doublets before collection. Results were quantitated using ModFit LT (1999; Topsham, Me.: Verity Software House, Inc.). […]

COc1ccc([C@H]2c3ccc(O)c(C)c3OC[C@H]2c2ccc(O)cc2)cc1 (stereo in doubt) [Cpd 1, 3-(4-hydroxyphenyl)-4-(4-methoxyphenyl)-8-methylchroman-7-ol]
Beclin and Bcl-2 co-precipitation (Beclin 1 / Bcl-2): co-precipitate at higher concentrations compared to control
occurrence of cytochrome c in the cytoplasm (cytochrome c): increased over time
mitochondrial membrane depolarization (R-182 cells): results in mitochondrial membrane depolarization
mitochondrial content of beclin-1 (Beclin 1): transiently increased
LC3-II expression (LC3-II): increased over time
cell viability of ovarian cancer cells [1]: decreased cell viability of all primary ovarian cancer cells
DNA fragmentation [2]: 95%

Source: patent US20100173983A1, “METHOD FOR INDUCING AUTOPHAGY” (priority 2007, published 2010)
